# Laboratory results from US20050228020A1, “Beta secretase inhibitors” (priority 2000, published 2005).
# Counter-ions that a name gives are not always drawn.
# Biological target: T1, recombinant human β secretase (Homo sapiens, UniProt P56817)
# T1 construct: made in house; host or cells: COS7 cells transfected with pBACE2; membrane fraction solubilised with octyl-β-glucoside, purified with anti-Flag antibody
# Assay: Measurement of inhibitory activity on β secretase (fluorogenic peptide substrate cleavage)
# Type: biochemical
# Conditions: pH 4.5
# Description: The PCR product was subjected to agarose gel electrophoresis, and about a 700-b DNA fragment was recovered. The fragment was cloned with a Zero Blunt TOPO PCR Cloning Kit (Invitrogen). The resultant plasmid was digested with restriction enzymes APaI (Takara Shuzo) and KpnI (Takara Shuzo) and then subjected to agarose gel electrophoresis to recover about a 250-b DNA fragment. […] These DNA fragments were mixed with an animal cell expression plasmid pcDNA3.1 (−) (Funakoshi) digested with API and KpnI, then ligated by use of Ligation High (Toyobo), and used to transform E. coli JM109 competent cells (Takara Shuzo) to give plasmid pBACE1. […] The PCR product was subjected to agarose gel electrophoresis, and about a 170-b DNA fragment was recovered. The fragment was cloned with a Zero Blunt TOPO PCR Cloning Kit (Invitrogen). The resultant plasmid was digested with restriction enzymes APaI (Takara Shuzo) and BbeI (Takara Shuzo) and then subjected to agarose gel electrophoresis, to recover about a 120-b DNA fragment. pBACE1 was digested with the same enzymes and subjected to agarose gel electrophoresis to recover about a 1.1-kb DNA fragment. Further, pBACE1 was digested with APaI and subjected to agarose gel electrophoresis to recover about a 5.7-kb DNA fragment. These 3 fragments were ligated by use of Ligation High (Toyobo), and used to transform E. coli JM109 competent cells (Takara Shuzo) to give plasmid pBACE2.
# 15 μg of Human β secretase expression plasmid pBACE2 and 45 μl of Fugene 6 (Roche Diagnostics) were allowed to stand in 1.5 ml D-MEM medium for 15 minutes at room temperature, and this mixture was added to COS7 cells previously grown in D-MEM medium (Nikken Seibutsu Igaku Kenkyusho) containing 10% fetal bovine serum (LifeTech Oriental) in a Tissue culture flask 150 ml (Becton, Dickinson & Co). […] The disrupted solution was centrifuged (500 g, 10 minutes), the supernatant was ultracentrifuged (100,000 g, 45 minutes), and the precipitates were lyzed (4° C., 2.5 hours) with 0.5 ml lyzing buffer (0.01 M Tris-HCl (pH 8), 0.05 M octyl-β-glucoside, 1 mM EDTA, 0.5 mM PMSF) and then ultracentrifuged (100,000 g, 45 minutes). The supernatant was purified with 100 μl anti-Flag antibody (Sigma).
# T1 sequence (P56817 with tags, fused parts or gaps): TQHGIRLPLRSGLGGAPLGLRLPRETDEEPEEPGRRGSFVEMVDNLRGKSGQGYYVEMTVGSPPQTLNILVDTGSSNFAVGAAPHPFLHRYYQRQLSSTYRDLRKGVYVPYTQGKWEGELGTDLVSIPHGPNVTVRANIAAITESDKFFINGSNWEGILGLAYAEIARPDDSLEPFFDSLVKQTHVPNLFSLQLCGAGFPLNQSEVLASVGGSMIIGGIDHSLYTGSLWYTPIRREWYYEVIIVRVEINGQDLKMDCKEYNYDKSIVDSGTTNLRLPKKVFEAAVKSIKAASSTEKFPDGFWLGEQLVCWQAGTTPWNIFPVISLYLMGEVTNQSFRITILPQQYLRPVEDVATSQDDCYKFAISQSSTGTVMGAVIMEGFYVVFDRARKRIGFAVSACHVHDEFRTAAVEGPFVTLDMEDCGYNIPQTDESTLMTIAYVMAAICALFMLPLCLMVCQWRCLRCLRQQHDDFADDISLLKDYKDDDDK
row,Structure (SMILES),IC50 [nM]
1,c1ccc(-c2ccc(COc3ccc4c(c3)CCC(CCN3CCCCC3)C4)cc2)cc1 (stereo not drawn) [F],349

# Same assay, conditions: substrate Nma-Ser-Glu-Val-Asn-Leu-Asp-Ala-Glu-Lys(Dnp)-Arg-Arg-NH2; 0.05 M acetate buffer pH 4.5; 37° C. for 22 hours; fluorescence 325/460
row,Structure (SMILES),IC50 [nM]
1,Cc1ccc(-c2ccc(COc3ccc4c(c3)CC[C@@H](CCN(C)C)C4)cc2)cc1 [J],857
2,C[N+](C)([O-])CCC1CCc2cc(OCc3ccc(-c4ccccc4)cc3)ccc2C1 (stereo not drawn) [H],616
3,NCCC1CCc2cc(OCc3ccc(-c4ccccc4)cc3)ccc2C1 (stereo not drawn) [I],1050
4,c1ccc(-c2ccc(COc3ccc4c(c3)CCC(CCN3CCCC3)C4)cc2)cc1 (stereo not drawn) [E],1120
5,c1ccc(-c2ccc(COc3ccc4c(c3)CCC(CCn3ccnc3)C4)cc2)cc1 (stereo not drawn) [G],856
6,CCN(C)CCC1CCc2cc(OCc3ccc(-c4ccccc4)cc3)ccc2C1 (stereo not drawn) [D],945
7,"CN(C)CC[C@@H]1CCc2cc(OCc3ccc(-c4ccccc4)cc3)ccc2C1 [Compound A, (R)-(+)-6-(4-Biphenylyl)methoxy-2-[2-(N,N-dimethylamino)ethyl]tetralin hydrochloride·1H2O]",2930
8,CNCCC1CCc2cc(OCc3ccc(-c4ccccc4)cc3)ccc2C1 (stereo not drawn) [Compound C],1290
